Paper PMC5583658, “6,7-dimethoxy-1,2,3,4-tetrahydro-isoquinoline-3-carboxylic acid attenuates heptatocellular carcinoma in rats with NMR-based metabolic perturbations” (Future Science OA, 2017)

Legend:
[1] = tested on: diethylnitrosamine-induced hepatocarcinogenic rats; experiment: Oxidative stress parameters (SOD, CAT, GSH, PC, MDA) in liver of DEN-induced HCC rats; format: in vivo, albino Wistar rats; conditions: for CAT / MDA / PC / Reduced GSH / SOD: 15 days, mean ± SD, n = 6
Experimental: (§1) All animals were randomly divided into five groups of six animals each. Drugs were suspended in 0.25% CMC, subjected to 28 days’ treatment orally and divided as follows: Group I: 0.25% CMC (2 ml/kg), Group II: DEN (8 mg/kg, intraperitoneally), Group III: DEN+5-fluorouracil (5-FU, 10 mg/kg, intraperitoneally), Group IV: DEN+M1 (50 mg/kg, orally) and Group V: DEN+M1 (100 mg/kg, orally). The procedure to induce HCC was adopted from a paper by Song et al. where it is shown that DEN produces HCC at 8 mg/kg intraperitoneal injection for 28 days to albino Wistar rats. After initial 1 week of adaptive inhabitation, all rats of group II–V were administered with DEN (8 mg/kg, intraperitoneally) for 28 days. After 28 days, 5-FU and M1 were given for 15 days as mentioned above for group III–V. At the end of the experimental period, animals were sacrificed by cervical decapitation and livers were dissected out immediately, rinsed in ice cold saline and stored at -20°C for further studies. The serum was collected, processed and stored for further analysis.
(§2) Liver function biomarkers like aspartate aminotransferase (AST), alanine aminotransferase (ALT) were also measured in serum using commercially available kit from Ebra Diagonesis Pvt Ltd, Germany. The oxidative parameters like superoxide dismutase (SOD), thiobarbituric acid reactive substances (TBARS), protein carbonyl (PC), SOD [14], tissue catalase (CAT) and glutathione (GSH) levels were estimated in liver tissue in the similar experiment. The total protein content of each sample was measured using the Bradford reagent and bovine serum albumin was used as a standard. Conjugated bilirubin and biliverdin in liver were measured as per the following procedure stated earlier in the literature with slight modifications.

[2] = tested on: diethylnitrosamine-induced hepatocarcinogenic rats; experiment: ALT and AST in plasma of DEN-induced HCC rats; format: in vivo, albino Wistar rats; conditions: 15 days, mean ± SD, n = 6
Experimental: as §1, §2

[3] = Determination of M1 in rat plasma by HPLC (pharmacokinetics); format: in vivo, albino Wistar rats
Experimental: In a separate experiment, M1 was administered orally at 50 mg/kg bodyweight to albino Wistar rats (n = 3) and blood was collected from retro orbital plexus at 0.083, 0.25, 0.5, 1, 2, 4, 8, 12, 16, 24 and 36 h. After collection, blood was centrifuged at 10,000 rpm for 10 min, serum was separated and kept at -20°C for further HPLC determination.
A 1 mg/ml stock solution of M1 was prepared in methanol. 2, 5, 10, 25, 50, 100, 200, 250 and 500 ng/ml working solutions were prepared from the stock solution in methanol. A 100 μl of blank plasma and 100 μl working solutions were taken in separate tubes and vortexed for 30 min. After that, the tubes were centrifuged at 13,000 rpm for 5 min and supernatant was taken into another tube and dried at 40°C overnight. Later, the tubes were reconstituted with 50 μl of methanol, vortexed for 10 min and 20 μl was injected for HPLC analysis. The final concentration of working solutions were 1, 2.5, 5, 12.5, 25, 50, 100, 125 and 250 ng/ml, respectively. Quality control (QC) samples were also prepared at concentrations of 3.0, 25.0 and 200.0 ng/ml, representing low, medium and high QC samples (LQC, MQC and HQC), respectively. Triplicate calibrants and QC samples were prepared at each concentration.
For test samples, 100 μl of test plasma and 100 μl methanol were taken in a test tube and vortexed for 30 min. The other procedure was similar to previously described method.
For the determination of M1 in plasma samples, chromatographic separations were performed in a Waters 2489 HPLC (MA, USA) equipped with Spherowsorb C18, 5μ, 4.6 × 250 mm column. The flow rate was at 1.0 ml/min and the mobile phases consisted of solvent A (formic acid containing water, pH 3.4) and solvent B (methanol). The elution condition was methanol:formic acid (70:30) and the total run time was 8 min. The HPLC was run through Empower software version 2 and absorbance was measured at 230 nm wave length. The detector used for estimation was Waters 2489 UV-Vis detector. The final data was calculated using Winnonlin version 1.5.3 software.

[4] = tested on: diethylnitrosamine-induced hepatocarcinogenic rats; experiment: Bilirubin and biliverdin in liver of DEN-induced HCC rats; format: in vivo, albino Wistar rats; conditions: for Bilirubin / Biliverdin: 15 days, mean ± SD, n = 6
Experimental: as §1, §2

[5] = tested on: Huh-7 cells; conditions: in vitro, MTT assay; M1 isolated from MP seeds; cited from earlier work
[6] = albino Wistar, rat, single oral administration of 50 mg/kg in rats, n = 3, plasma

Structure (SMILES): COc1cc2c(cc1OC)CC(C(=O)O)NC2 (centres unmarked) [M1, 6,7-dimethoxy-1,2,3,4-tetrahydro-isoquinoline-3-carboxylic acid]
- CAT ([1]; DEN+M1 50 mg/kg orally): 6.51 ± 0.29 nM of H2O2/min/μg of protein
- MDA ([1]; DEN+M1 50 mg/kg orally): 51.60 ± 1.009 nM/μg of protein
- PC ([1]; DEN+M1 50 mg/kg orally): 0.46 ± 0.08 μM/μg of protein
- Reduced GSH ([1]; DEN+M1 50 mg/kg orally): 5.40 ± 0.42 μM/μg of protein
- SOD ([1]; DEN+M1 50 mg/kg orally): 5.92 ± 0.72 U/μg of protein
- CAT ([1]; DEN+M1 100 mg/kg orally): 7.52 ± 0.7 nM of H2O2/min/μg of protein
- MDA ([1]; DEN+M1 100 mg/kg orally): 45.20 ± 1.05 nM/μg of protein
- PC ([1]; DEN+M1 100 mg/kg orally): 0.40 ± 0.02 μM/μg of protein
- Reduced GSH ([1]; DEN+M1 100 mg/kg orally): 6.69 ± 0.30 μM/μg of protein
- SOD ([1]; DEN+M1 100 mg/kg orally): 6.14 ± 0.17 U/μg of protein
- GSH level ([1]; M1 50 mg/kg): ~5.40 µM
- GSH level ([1]; M1 100 mg/kg): ~6.69 µM
- SOD level as compared with normal group ([1]; M1-treated groups (toxic control 20–30%)): 70–80%
- PC formation ([1]; M1-treated rats, text value (toxic control ∼0.96 μM)): ~0.40 µM
- MDA formation ([1]; after M1 therapy, text value (toxic control approximately 98 nM)): ~50 nM
- ALT ([2]; DEN+M1 50 mg/kg orally): 88.4 ± 3.18 U/L
- AST ([2]; DEN+M1 50 mg/kg orally): 47.73 ± 1.76 U/L
- ALT ([2]; DEN+M1 100 mg/kg orally): 58.04 ± 2.84 U/L
- AST ([2]; DEN+M1 100 mg/kg orally): 40.95 ± 1.35 U/L
- AUC(0-t) ([3]; albino Wistar, rat, plasma, po, 50 mg/kg, single oral administration of 50 mg/kg in rats, n = 3, plasma, after 36 h): 2070 ng·h/mL
- Cmax [3, 6]: 178 ± 3.27 ng/mL
- Tmax [3, 6]: 4 h
- half-life [3, 6]: 363 min
- MRT ([3]; albino Wistar, rat, single oral administration of 50 mg/kg in rats, n = 3, plasma, read-out: MRT (mean retention time)): 10.5 h
- oral bioavailability (in words) ([3]; oral 50 mg/kg, rats, inferred from Cmax): good oral bioavailability
- AUC0-T ([3]; single oral administration of 50 mg/kg in rats, n = 3, plasma, after 36 h, 50 mg/kg): 2056.05 ± 26.22 ng·h/mL
- Bilirubin ([4]; DEN+M1 50 mg/kg orally): 50.59 ± 1.39 ng/μg of protein
- Biliverdin ([4]; DEN+M1 50 mg/kg orally): 21.19 ± 2.42 ng/μg of protein
- Bilirubin ([4]; DEN+M1 100 mg/kg orally): 40.64 ± 3.47 ng/μg of protein
- Biliverdin ([4]; DEN+M1 100 mg/kg orally): 16.95 ± 1.96 ng/μg of protein
- biliverdin concentration ([4]; M1-treated rats, text value (toxic control ∼28 ng)): ~16 ng
- antiproliferative action on Huh-7 cells [5]: good antiproliferative action
